Measured values taken from ChEMBL document CHEMBL3596180, “Evaluation of histone deacetylase inhibitors (HDACi) as therapeutic leads for human African trypanosomiasis (HAT)” (Bioorg Med Chem, 2015).
Active and inactive are the calls of the source. The calls are words filed in the database; no cut-off is given here.

Key:
[1] = Tmax in po dosed human measured under phase 2 trial; format: ADME, organism-based; conditions: in vivo
[2] = Cmax in po dosed human measured under phase 1 trial; format: ADME, organism-based; parameters: route oral; conditions: in vivo
[3] = system: Trypanosoma brucei brucei; assay: Antitrypanosomal activity against Trypanosoma brucei brucei 427 assessed as inhibition of parasite proliferation measured as ATP levels after 48 hrs by luciferase-based assay; format: functional, organism-based; conditions: Trypanosoma brucei, 427, 48 h
[4] = Cmax in po dosed human measured under phase 2 trial; format: ADME, organism-based; parameters: route oral; conditions: in vivo
[5] = AUC in iv dosed human measured under phase 1 trial; format: ADME, organism-based; conditions: in vivo
[6] = Half-life in po dosed human measured under phase 2 trial; format: ADME, organism-based; conditions: in vivo
[7] = Tmax in po dosed human measured under phase 1 trial; format: ADME, organism-based; conditions: in vivo
[8] = Half-life in iv dosed human measured under phase 1 trial; format: ADME, organism-based; conditions: in vivo
[9] = AUC in po dosed human measured under phase 1 trial; format: ADME, organism-based; conditions: in vivo
[10] = Cmax in iv dosed human measured under phase 1 trial; format: ADME, organism-based; parameters: route intravenous; conditions: in vivo
[11] = Tmax in iv dosed human measured under phase 1 trial; format: ADME, organism-based; conditions: in vivo
[12] = AUC in po dosed human measured under phase 2 trial; format: ADME, organism-based; conditions: in vivo
[13] = Half-life in po dosed human measured under phase 1 trial; format: ADME, organism-based; conditions: in vivo
[14] = system: Trypanosoma brucei brucei; assay: Trypanocidal activity against Trypanosoma brucei brucei assessed as killing of parasite densities of 10^4 to 10^6 cells/ml at 180 uM after 4 hrs by clonal dilution method; format: functional, organism-based
[15] = AUC in iv dosed human measured under phase 1/2 trial; format: ADME, organism-based; conditions: in vivo
[16] = Tmax in iv dosed human measured under phase 1/2 trial; format: ADME, organism-based; conditions: in vivo
[17] = Half-life in iv dosed human measured under phase 1/2 trial; format: ADME, organism-based; conditions: in vivo
[18] = system: Trypanosoma brucei brucei; assay: Trypanocidal activity against Trypanosoma brucei brucei assessed as killing of parasite densities of 10^4 to 10^6 cells/ml at 2 uM after […] by clonal dilution method; format: functional, organism-based
[19] = Cmax in iv dosed human measured under phase 1/2 trial; format: ADME, organism-based; parameters: route intravenous; conditions: in vivo
Histone deacetylase 5 = Histone deacetylase 5 (Homo sapiens, UniProt Q9UQL6); assay: Inhibition of human HDAC5
Chain of Histone deacetylase 5 (Q9UQL6 whole entry): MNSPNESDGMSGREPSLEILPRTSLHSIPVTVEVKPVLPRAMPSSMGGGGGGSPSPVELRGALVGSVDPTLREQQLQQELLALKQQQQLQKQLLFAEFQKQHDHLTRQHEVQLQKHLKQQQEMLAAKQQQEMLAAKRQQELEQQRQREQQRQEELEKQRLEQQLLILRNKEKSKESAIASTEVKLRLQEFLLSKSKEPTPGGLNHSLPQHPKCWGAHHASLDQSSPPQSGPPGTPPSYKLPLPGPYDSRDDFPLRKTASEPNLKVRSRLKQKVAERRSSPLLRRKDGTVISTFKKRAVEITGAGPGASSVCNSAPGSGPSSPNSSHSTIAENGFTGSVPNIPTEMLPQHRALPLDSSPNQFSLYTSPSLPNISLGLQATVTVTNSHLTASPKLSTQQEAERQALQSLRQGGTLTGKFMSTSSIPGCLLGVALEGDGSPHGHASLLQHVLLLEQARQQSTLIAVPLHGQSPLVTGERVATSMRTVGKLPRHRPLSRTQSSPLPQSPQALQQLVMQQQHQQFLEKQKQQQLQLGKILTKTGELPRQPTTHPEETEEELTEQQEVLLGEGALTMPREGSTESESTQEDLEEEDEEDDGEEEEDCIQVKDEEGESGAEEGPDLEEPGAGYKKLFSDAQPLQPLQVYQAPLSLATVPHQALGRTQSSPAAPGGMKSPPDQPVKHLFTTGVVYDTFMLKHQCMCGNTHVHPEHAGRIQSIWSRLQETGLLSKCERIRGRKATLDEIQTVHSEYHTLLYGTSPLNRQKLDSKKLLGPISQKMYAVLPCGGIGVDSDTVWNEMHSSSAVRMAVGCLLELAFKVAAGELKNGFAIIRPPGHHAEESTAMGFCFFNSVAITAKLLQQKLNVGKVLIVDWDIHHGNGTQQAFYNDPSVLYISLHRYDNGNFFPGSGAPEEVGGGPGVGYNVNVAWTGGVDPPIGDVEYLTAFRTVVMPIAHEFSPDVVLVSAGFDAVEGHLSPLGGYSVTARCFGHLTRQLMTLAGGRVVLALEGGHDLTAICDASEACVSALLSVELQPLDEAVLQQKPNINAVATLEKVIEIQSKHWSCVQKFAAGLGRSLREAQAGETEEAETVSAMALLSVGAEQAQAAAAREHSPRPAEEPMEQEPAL

[20] = molecular target: T1, Polyamine deacetylase HDAC10 (Homo sapiens, UniProt Q969S8); assay: Inhibition of human HDAC10
T1 sequence (Q969S8 whole entry): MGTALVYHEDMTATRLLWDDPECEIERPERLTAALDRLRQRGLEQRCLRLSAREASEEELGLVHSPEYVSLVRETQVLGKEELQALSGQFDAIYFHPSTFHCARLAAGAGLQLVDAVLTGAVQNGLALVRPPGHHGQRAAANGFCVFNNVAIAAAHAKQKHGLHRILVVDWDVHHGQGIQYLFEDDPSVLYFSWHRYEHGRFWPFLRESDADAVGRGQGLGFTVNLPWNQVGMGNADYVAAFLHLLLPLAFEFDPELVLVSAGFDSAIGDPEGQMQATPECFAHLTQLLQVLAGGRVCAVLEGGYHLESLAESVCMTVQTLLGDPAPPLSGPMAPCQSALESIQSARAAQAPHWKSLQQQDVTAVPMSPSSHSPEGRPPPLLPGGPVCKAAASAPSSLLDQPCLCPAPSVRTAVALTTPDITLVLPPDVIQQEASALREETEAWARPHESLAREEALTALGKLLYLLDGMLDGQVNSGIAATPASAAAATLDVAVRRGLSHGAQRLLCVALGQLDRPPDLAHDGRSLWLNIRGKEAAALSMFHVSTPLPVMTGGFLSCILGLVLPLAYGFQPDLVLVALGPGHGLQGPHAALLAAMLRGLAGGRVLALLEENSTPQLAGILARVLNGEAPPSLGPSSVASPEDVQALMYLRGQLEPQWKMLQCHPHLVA

Histone deacetylase 9 = Histone deacetylase 9 (Homo sapiens, UniProt Q9UKV0); assay: Inhibition of human HDAC9
Chain of Histone deacetylase 9 (Q9UKV0 whole entry): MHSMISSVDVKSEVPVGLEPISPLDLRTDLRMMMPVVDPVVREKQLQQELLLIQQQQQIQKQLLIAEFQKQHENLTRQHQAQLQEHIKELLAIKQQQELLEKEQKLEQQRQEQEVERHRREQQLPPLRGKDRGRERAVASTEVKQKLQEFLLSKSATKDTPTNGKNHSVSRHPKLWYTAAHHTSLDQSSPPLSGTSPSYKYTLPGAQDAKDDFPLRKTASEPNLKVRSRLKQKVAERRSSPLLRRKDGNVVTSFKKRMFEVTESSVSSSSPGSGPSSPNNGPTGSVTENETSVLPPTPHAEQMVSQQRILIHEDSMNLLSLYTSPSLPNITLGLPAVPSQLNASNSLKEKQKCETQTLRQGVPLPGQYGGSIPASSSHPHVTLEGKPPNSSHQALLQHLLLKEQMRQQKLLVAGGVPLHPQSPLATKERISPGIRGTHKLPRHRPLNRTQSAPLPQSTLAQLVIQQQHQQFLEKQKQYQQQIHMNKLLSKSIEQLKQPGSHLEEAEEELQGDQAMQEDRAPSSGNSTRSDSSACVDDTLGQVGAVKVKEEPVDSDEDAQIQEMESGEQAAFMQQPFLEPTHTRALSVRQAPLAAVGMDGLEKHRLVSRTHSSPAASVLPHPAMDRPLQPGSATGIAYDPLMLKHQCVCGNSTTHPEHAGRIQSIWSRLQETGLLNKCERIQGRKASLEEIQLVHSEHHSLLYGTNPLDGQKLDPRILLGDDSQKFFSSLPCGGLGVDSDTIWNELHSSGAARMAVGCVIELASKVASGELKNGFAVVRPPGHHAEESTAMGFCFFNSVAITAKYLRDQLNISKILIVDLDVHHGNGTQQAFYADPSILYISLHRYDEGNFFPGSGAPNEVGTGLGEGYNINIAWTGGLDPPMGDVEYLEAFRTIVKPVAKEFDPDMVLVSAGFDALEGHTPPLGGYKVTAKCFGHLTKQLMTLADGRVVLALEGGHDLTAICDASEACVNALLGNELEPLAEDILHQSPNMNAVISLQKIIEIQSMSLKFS

Homo sapiens = species on record: Homo sapiens; assay: Half-life in human; format: ADME, organism-based; conditions: in vivo
[21] = Cmax in human; format: ADME, organism-based; conditions: in vivo
[22] = system: Trypanosoma brucei brucei; assay: Trypanocidal activity against Trypanosoma brucei brucei assessed as killing of parasite densities of 10^4 to 10^6 cells/ml at 2.2 uM by clonal dilution method; format: functional, organism-based
Histone deacetylase 7 = molecular target: T2, Histone deacetylase 7 (Homo sapiens, UniProt Q8WUI4); assay: Inhibition of human HDAC7
T2 sequence (Q8WUI4 whole entry): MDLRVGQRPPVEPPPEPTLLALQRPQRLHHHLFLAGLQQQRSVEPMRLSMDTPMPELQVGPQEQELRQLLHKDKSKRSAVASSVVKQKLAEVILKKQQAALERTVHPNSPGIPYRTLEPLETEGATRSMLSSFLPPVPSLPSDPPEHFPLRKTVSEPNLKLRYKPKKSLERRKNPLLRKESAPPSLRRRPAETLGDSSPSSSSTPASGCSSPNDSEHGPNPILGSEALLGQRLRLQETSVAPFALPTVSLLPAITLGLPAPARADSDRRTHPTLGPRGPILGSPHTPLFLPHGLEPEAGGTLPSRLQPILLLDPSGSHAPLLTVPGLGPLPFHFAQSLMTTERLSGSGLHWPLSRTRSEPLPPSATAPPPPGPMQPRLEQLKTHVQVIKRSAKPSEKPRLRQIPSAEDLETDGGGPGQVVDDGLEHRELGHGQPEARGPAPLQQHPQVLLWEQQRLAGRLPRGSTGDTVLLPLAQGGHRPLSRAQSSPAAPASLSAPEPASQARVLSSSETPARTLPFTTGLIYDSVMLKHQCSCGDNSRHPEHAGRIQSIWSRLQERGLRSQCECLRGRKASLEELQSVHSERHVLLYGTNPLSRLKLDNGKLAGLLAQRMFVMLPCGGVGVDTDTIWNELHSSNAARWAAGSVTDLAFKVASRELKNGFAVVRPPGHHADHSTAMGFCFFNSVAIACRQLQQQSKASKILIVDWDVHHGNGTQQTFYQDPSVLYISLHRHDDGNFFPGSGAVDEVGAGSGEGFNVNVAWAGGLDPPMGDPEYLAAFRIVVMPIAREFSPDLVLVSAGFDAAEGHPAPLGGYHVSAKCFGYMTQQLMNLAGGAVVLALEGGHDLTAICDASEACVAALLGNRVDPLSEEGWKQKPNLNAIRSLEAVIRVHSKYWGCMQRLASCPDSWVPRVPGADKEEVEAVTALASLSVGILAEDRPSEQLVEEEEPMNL

Histone deacetylase 2 = Histone deacetylase 2 (Homo sapiens, UniProt Q92769); assay: Inhibition of human HDAC2
Chain of Histone deacetylase 2 (Q92769 whole entry): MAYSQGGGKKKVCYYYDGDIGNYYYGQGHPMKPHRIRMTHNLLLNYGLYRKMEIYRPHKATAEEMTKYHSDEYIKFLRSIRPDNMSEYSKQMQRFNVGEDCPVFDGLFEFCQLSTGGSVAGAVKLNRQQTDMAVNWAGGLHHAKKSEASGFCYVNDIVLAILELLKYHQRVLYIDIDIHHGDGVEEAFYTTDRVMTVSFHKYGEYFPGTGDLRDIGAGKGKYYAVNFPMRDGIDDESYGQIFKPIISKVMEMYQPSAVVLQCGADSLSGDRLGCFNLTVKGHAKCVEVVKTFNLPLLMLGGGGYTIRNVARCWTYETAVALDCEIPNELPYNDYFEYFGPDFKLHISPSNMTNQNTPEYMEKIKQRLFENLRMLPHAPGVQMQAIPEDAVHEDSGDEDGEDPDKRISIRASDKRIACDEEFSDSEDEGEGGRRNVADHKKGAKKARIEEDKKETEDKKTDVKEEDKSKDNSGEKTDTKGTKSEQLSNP

Histone deacetylase 1 = Histone deacetylase 1 (Homo sapiens, UniProt Q13547); assay: Inhibition of human HDAC1
Chain of Histone deacetylase 1 (Q13547 whole entry): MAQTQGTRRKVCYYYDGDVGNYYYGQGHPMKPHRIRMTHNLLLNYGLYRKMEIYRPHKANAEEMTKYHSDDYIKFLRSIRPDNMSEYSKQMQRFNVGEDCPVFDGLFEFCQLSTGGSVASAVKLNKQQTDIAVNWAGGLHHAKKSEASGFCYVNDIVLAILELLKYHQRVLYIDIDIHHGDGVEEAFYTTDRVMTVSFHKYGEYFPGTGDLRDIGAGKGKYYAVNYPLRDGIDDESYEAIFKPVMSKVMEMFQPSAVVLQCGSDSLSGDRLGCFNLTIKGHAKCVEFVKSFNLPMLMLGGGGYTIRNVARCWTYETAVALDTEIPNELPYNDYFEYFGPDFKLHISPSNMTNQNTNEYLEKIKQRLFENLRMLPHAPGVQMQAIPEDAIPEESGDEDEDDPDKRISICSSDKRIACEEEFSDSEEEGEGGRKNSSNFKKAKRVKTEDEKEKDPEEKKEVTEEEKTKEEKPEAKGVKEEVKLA

Histone deacetylase 11 = molecular target: T3, Histone deacetylase 11 (Homo sapiens, UniProt Q96DB2); assay: Inhibition of human HDAC11
T3 sequence (Q96DB2 whole entry): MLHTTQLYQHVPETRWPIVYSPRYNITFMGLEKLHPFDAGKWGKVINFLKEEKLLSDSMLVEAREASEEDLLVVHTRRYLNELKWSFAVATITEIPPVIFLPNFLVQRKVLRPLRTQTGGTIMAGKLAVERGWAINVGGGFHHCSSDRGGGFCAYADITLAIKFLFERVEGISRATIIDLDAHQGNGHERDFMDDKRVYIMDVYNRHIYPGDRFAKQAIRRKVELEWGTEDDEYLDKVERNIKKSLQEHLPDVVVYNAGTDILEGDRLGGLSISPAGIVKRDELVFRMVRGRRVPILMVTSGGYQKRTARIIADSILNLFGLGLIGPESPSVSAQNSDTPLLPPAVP

Cc1[nH]c2ccccc2c1CCNCc1ccc(/C=C/C(=O)NO)cc1 [PANOBINOSTAT]
Tmax [1]: 1 h
Cmax [2]: 31 nM
EC50 [3]: 1580 nM
EC90 [3]: 4860 nM
Cmax [4]: 191 nM
AUC [5]: 605 ng·h/mL
half-life [6]: 15 h
Tmax [7]: 1.5 h
half-life [8]: 16 h
AUC [9]: 91.3 ng·h/mL
Cmax [10]: 1410 nM
Tmax [11]: 0.5 h
AUC [12]: 356 ng·h/mL
half-life [13]: 12.8 h

CC(C)(CCc1ccccc1)C(=O)Nc1ccc(C(=O)NO)cc1
EC50 [3]: 6550 nM

O=C(/C=C/c1cccc(S(=O)(=O)Nc2ccccc2)c1)NO [BELINOSTAT]
Activity [14]: inactive
Cmax [2]: 2140 nM
EC50 [3]: 2150 nM
EC90 [3]: 4010 nM
AUC [15]: 47500 ng·h/mL
Tmax [16]: 0.45 h
half-life [17]: 3.49 h
Activity [18]: inactive
AUC [5]: 9990 ng·h/mL
Tmax [7]: 1.9 h
half-life [8]: 0.69 h
Cmax [19]: 183000 nM
AUC [9]: 2700 ng·h/mL
Cmax [10]: 101000 nM
Tmax [11]: 0 h
half-life [13]: 1.5 h

CC(/C=C/C(=O)NO)=C\[C@@H](C)C(=O)c1ccc(N(C)C)cc1 [TRICHOSTATIN]
EC50 [3]: 5000 nM

CCN(CC)Cc1ccc2cc(COC(=O)Nc3ccc(C(=O)NO)cc3)ccc2c1 [GIVINOSTAT]
Cmax [2]: 208 nM
EC50 [3]: 10900 nM
Tmax [7]: 2.1 h
AUC [9]: 671 ng·h/mL
half-life [13]: 6 h

Cn1cc(CNCC2CCN(c3ncc(C(=O)NO)cn3)CC2)c2ccccc21 [QUISINOSTAT]
Cmax [2]: 3 nM
EC50 [3]: 29 nM
Ki (Histone deacetylase 5): 2.1 nM
Ki [20]: 0.05 nM
Tmax [7]: 4 h
AUC [9]: 9.77 ng·h/mL
Ki (Histone deacetylase 9): 3.8 nM

O=C(/C=C\c1cccc(C(=O)NO)c1)NO
EC50 [3]: 7000 nM

CN(C)Cc1c(C(=O)NCCOc2ccc(C(=O)NO)cc2)oc2ccccc12 [ABEXINOSTAT]
EC50 [3]: 8610 nM

N=C(N)c1ccc(OCCCCCOc2ccc(C(=N)N)cc2)cc1 [PENTAMIDINE]
t1/2 (Homo sapiens): 265 h
Cmax [21]: 900 nM
Activity [22]: Active

O=C(/C=C/C#Cc1ccc(NS(=O)(=O)c2ccccc2)cc1)NO [OXAMFLATIN]
EC50 [3]: 4060 nM

CN1CCc2c(c3ccccc3n2Cc2ccc(C(=O)NO)cc2)C1 [TUBASTATIN A]
EC50 [3]: 2750 nM

O=C(Nc1ccccc1-c1cn2c(CN3CCNCC3)csc2n1)c1cnc2ccccc2n1
EC50 [3]: 892 nM

O=C(/C=C/c1ccc(CN(CCO)CCc2c[nH]c3ccccc23)cc1)NO [DACINOSTAT]
EC50 [3]: 2600 nM
AUC [5]: 2310 ng·h/mL
half-life [8]: 8.29 h
Cmax [10]: 2170 nM
Tmax [11]: 2 h

O=C(CCCCCCC(=O)Nc1ccc([C@H]2O[C@@H](CSc3nc(-c4ccccc4)c(-c4ccccc4)o3)C[C@@H](c3ccc(CO)cc3)O2)cc1)NO [TUBACIN]
Ki (Histone deacetylase 7): 5430 nM
EC50 [3]: 3380 nM
Ki (Histone deacetylase 5): 1920 nM
Ki (Histone deacetylase 2): 1180 nM
Ki (Histone deacetylase 1): 326 nM

CCCCc1nc2cc(/C=C/C(=O)NO)ccc2n1CCN(CC)CC [PRACINOSTAT]
Cmax [2]: 497 nM
EC50 [3]: 9550 nM
Ki (Histone deacetylase 11): 43 nM
AUC [9]: 1030 ng·h/mL
